Strand notation (5' to 3'): a small letter for the sugar, then the base; units joined by * are phosphorothioate-linked, units joined directly phosphodiester-linked; [ ] holds rarer units or linkages, { } end groups; capitals alone tell only the bases. d = 2'-deoxy (DNA); m = 2'-O-methyl; f = 2'-fluoro
System: human EPAS1 (Hif2α) cDNA in psiCHECK2 (Renilla luciferase/EPAS1 fusion mRNA) in Hep3B cells
Assay: Efficacy screen of Hif2α RNAi triggers in vitro, dual-luciferase reporter assay (1 nM and 0.1 nM)
Assay type: cell-based
Conditions: Hep3B cells co-transfected with EPAS1-psiCHECK2, Renilla luciferase normalized to firefly luciferase
Text: Candidate sequences were identified by in silico analysis and screened as chemically modified canonical siRNAs in vitro. For screening purposes, the human EPAS1 (Hif2α) cDNA sequence (accession #NM 001430) was synthesized and cloned (DNA 2.0, Menlo Park, Calif.) into a commercially-available reporter-based screening plasmid, psiCHECK2 (Promega, Madison, Wis.) which generated a Renilla luciferase/EPAS1 fusion mRNA. For RNAi trigger efficacy evaluation, Hep3B cells, a human hepatocellular carcinoma line, were plated at 10,000 cells per well in 96-well format. Each of the 187 EPAS1 RNAi triggers, in two subsets, was co-transfected at two concentrations, 1 nM and 0.1 nM, with 25 ng EPAS1-psiCHECK2 plasmid DNA per well and 0.2 μL LipoFectamine 2000 (Life Technologies) per well. Gene knockdown was determined by measuring Renilla luciferase levels normalized to the levels of constitutively-expressed firefly luciferase, also present on the psiCHECK-2 plasmid, using the Dual Luciferase Reporter Assay (Promega, Madison, Wis.) Table 5.

Row | Substance | Relative Rluc-Hif2α (0.1 nM RNAi trigger) | Relative Rluc-Hif2α (1 nM RNAi trigger)
1 | 2278 (sense fCmCfAmGfUmAfCmCfGmGfAmUfGmCfUmCfGmCfAdT; antisense dTfGmCfGmAfGmCfAmUfCmCfGmGfUmAfCmUfGmGdT*dT; siRNA) [compound 2278] | 0.947 ± 0.044 | 0.564 ± 0.070
2 | 2279 (sense fAmGfUmAfCmCfGmGfAmUfGmCfUmCfGmCfAmAfAdT; antisense dTfUmUfGmCfGmAfGmCfAmUfCmCfGmGfUmAfCmUdT*dT; siRNA) [compound 2279] | 0.506 ± 0.086 | 0.280 ± 0.042
3 | 2280 (sense fUmAfCmCfGmGfAmUfGmCfUmCfGmCfAmAfAmGfAdT; antisense dTfCmUfUmUfGmCfGmAfGmCfAmUfCmCfGmGfUmAdT*dT; siRNA) [compound 2280] | 0.871 ± 0.147 | 0.911 ± 0.086
4 | 2281 (sense fUmGfCmUfCmGfCmAfAmAfGmCfAmUfGmGfGmGfAdT; antisense dTfCmCfCmCfAmUfGmCfUmUfUmGfCmGfAmGfCmAdT*dT; siRNA) [compound 2281] | 0.914 ± 0.177 | 0.651 ± 0.041
5 | 2282 (sense fCmGfCmAfAmAfGmCfAmUfGmGfGmGfGmCfUmAfAdT; antisense dTfUmAfGmCfCmCfCmCfAmUfGmCfUmUfUmGfCmGdT*dT; siRNA) [compound 2282] | 1.209 ± 0.132 | 0.824 ± 0.155
6 | 2283 (sense fAmGfCmAfUmGfGmGfGmGfCmUfAmCfGmUfGmUfAdT; antisense dTfAmCfAmCfGmUfAmGfCmCfCmCfCmAfUmGfCmUdT*dT; siRNA) [compound 2283] | 1.175 ± 0.194 | 0.882 ± 0.026
7 | 2284 (sense fGmCfAmUfGmGfGmGfGmCfUmAfCmGfUmGfUmGfAdT; antisense dTfCmAfCmAfCmGfUmAfGmCfCmCfCmCfAmUfGmCdT*dT; siRNA) [compound 2284] | 1.227 ± 0.266 | 0.787 ± 0.062
8 | 2285 (sense fCmAfUmCfUmAfCmAfAmCfCmCfUmCfGmCfAmAfAdT; antisense dTfUmUfGmCfGmAfGmGfGmUfUmGfUmAfGmAfUmGdT*dT; siRNA) [compound 2285] | 1.109 ± 0.247 | 0.723 ± 0.088
9 | 2286 (sense fAmUfCmUfAmCfAmAfCmCfCmUfCmGfCmAfAmCfAdT; antisense dTfGmUfUmGfCmGfAmGfGmGfUmUfGmUfAmGfAmUdT*dT; siRNA) [compound 2286] | 1.291 ± 0.367 | 0.878 ± 0.078
10 | 2287 (sense fCmUfAmCfAmAfCmCfCmUfCmGfCmAfAmCfCmUfAdT; antisense dTfAmGfGmUfUmGfCmGfAmGfGmGfUmUfGmUfAmGdT*dT; siRNA) [compound 2287] | 0.871 ± 0.102 | 0.751 ± 0.011
11 | 2288 (sense fUmAfCmAfAmCfCmCfUmCfGmCfAmAfCmCfUmGfAdT; antisense dTfCmAfGmGfUmUfGmCfGmAfGmGfGmUfUmGfUmAdT*dT; siRNA) [compound 2288] | 0.943 ± 0.029 | 0.932 ± 0.118
12 | 2289 (sense fUmUfUmGfAmUfAmGfCmAfGmUfGmGfCmAfAmGfAdT; antisense dTfCmUfUmGfCmCfAmCfUmGfCmUfAmUfCmAfAmAdT*dT; siRNA) [compound 2289] | 0.992 ± 0.153 | 1.039 ± 0.146
13 | 2290 (sense fAmGfUmAfAmCfUmUfCmCfUmAfUmUfCmAfCmCfAdT; antisense dTfGmGfUmGfAmAfUmAfGmGfAmAfGmUfUmAfCmUdT*dT; siRNA) [compound 2290] | 0.698 ± 0.155 | 0.353 ± 0.036
14 | 2291 (sense fUmCfGmGfGmAfAmUfCmAfGmAfAmCfUmUfCmGfAdT; antisense dTfCmGfAmAfGmUfUmCfUmGfAmUfUmCfCmCfGmAdT*dT; siRNA) [compound 2291] | 0.911 ± 0.092 | 0.434 ± 0.046
15 | 2292 (sense fCmUfGmCfUmCfCmAfCmGfCmCfCmAfAmUfAmGfAdT; antisense dTfCmUfAmUfUmGfGmGfCmGfUmGfGmAfGmCfAmGdT*dT; siRNA) [compound 2292] | 1.135 ± 0.048 | 0.832 ± 0.000
16 | 2293 (sense fUmGfCmUfCmCfAmCfGmCfCmCfAmAfUmAfGmCfAdT; antisense dTfGmCfUmAfUmUfGmGfGmCfGmUfGmGfAmGfCmAdT*dT; siRNA) [compound 2293] | 1.010 ± 0.045 | 0.925 ± 0.126
17 | 2294 (sense fGmCfUmCfCmAfCmGfCmCfCmAfAmUfAmGfCmCfAdT; antisense dTfGmGfCmUfAmUfUmGfGmGfCmGfUmGfGmAfGmCdT*dT; siRNA) [compound 2294] | 0.743 ± 0.100 | 0.546 ± 0.033

Row | Substance | Relative Rluc-Hif2α (0.1 nM RNAi trigger) | Relative Rluc-Hif2α (1 nM RNAi trigger)
18 | 2295 (sense fAmCfGmCfCmCfAmAfUmAfGmCfCmCfUmGfAmAfAdT; antisense dTfUmUfCmAfGmGfGmCfUmAfUmUfGmGfGmCfGmUdT*dT; siRNA) [compound 2295] | 1.047 ± 0.184 | 0.863 ± 0.122
19 | 2296 (sense fCmAfUmCfUmUfUmGfGmAfUmAfAmCfGmAfCmCfAdT; antisense dTfGmGfUmCfGmUfUmAfUmCfCmAfAmAfGmAfUmGdT*dT; siRNA) [compound 2296] | 0.411 ± 0.079 | 0.213 ± 0.028
20 | 2297 (sense fCmAfAmUfGmCfAmGfUmAfCmCfCmAfGmAfCmGfAdT; antisense dTfCmGfUmCfUmGfGmGfUmAfCmUfGmCfAmUfUmGdT*dT; siRNA) [compound 2297] | 0.704 ± 0.083 | 0.643 ± 0.028
21 | 2298 (sense fAmUfGmCfAmGfUmAfCmCfCmAfGmAfCmGfGmAfAdT; antisense dTfUmCfCmGfUmCfUmGfGmGfUmAfCmUfGmCfAmUdT*dT; siRNA) [compound 2298] | 0.729 ± 0.092 | 0.695 ± 0.037
22 | 2299 (sense fAmGfUmAfCmCfCmAfGmAfCmGfGmAfUmUfUmCfAdT; antisense dTfGmAfAmAfUmCfCmGfUmCfUmGfGmGfUmAfCmUdT*dT; siRNA) [compound 2299] | 0.907 ± 0.171 | 0.827 ± 0.067
23 | 2300 (sense fCmUfGmUfAmGfCmCfCmCfGmCfAmCfAmGfUmCfAdT; antisense dTfGmAfCmUfGmUfGmCfGmGfGmGfCmUfAmCfAmGdT*dT; siRNA) [compound 2300] | 1.090 ± 0.106 | 0.786 ± 0.181
24 | 2301 (sense fAmUfCmUfUmCfUmUfUmGfAmUfGmCfCmGfGmAfAdT; antisense dTfUmCfCmGfGmCfAmUfCmAfAmAfGmAfAmGfAmUdT*dT; siRNA) [compound 2301] | 0.558 ± 0.034 | 0.423 ± 0.102
25 | 2302 (sense fCmUfUmUfGmAfUmGfCmCfGmGfAmAfGmCfAmAfAdT; antisense dTfUmUfGmCfUmUfCmCfGmGfCmAfUmCfAmAfAmGdT*dT; siRNA) [compound 2302] | 0.414 ± 0.019 | 0.147 ± 0.028
26 | 2303 (sense fGmAfUmGfCmCfGmGfAmAfGmCfAmAfAmGfCmAfAdT; antisense dTfUmGfCmUfUmUfGmCfUmUfCmCfGmGfCmAfUmCdT*dT; siRNA) [compound 2303] | 0.414 ± 0.002 | 0.294 ± 0.034
27 | 2304 (sense fAmUfGmCfCmGfGmAfAmGfCmAfAmAfGmCfAmUfAdT; antisense dTfAmUfGmCfUmUfUmGfCmUfUmCfCmGfGmCfAmUdT*dT; siRNA) [compound 2304] | 0.528 ± 0.116 | 0.302 ± 0.025
28 | 2305 (sense fGmCfCmGfGmAfAmGfCmAfAmAfGmCfAmUfCmCfAdT; antisense dTfGmGfAmUfGmCfUmUfUmGfCmUfUmCfCmGfGmCdT*dT; siRNA) [compound 2305] | 0.961 ± 0.120 | 0.992 ± 0.217
29 | 2306 (sense fCmCfCmCfCmAfGmAfUmCfCmAfCmCfAmUfUmAfAdT; antisense dTfUmAfAmUfGmGfUmGfGmAfUmCfUmGfGmGfGmGdT*dT; siRNA) [compound 2306] | 0.596 ± 0.038 | 0.613 ± 0.031
30 | 2307 (sense fAmGfAmUfCmCfAmCfCmAfUmUfAmCfAmUfUmUfAdT; antisense dTfAmAfAmUfGmUfAmAfUmGfGmUfGmGfAmUfCmUdT*dT; siRNA) [compound 2307] | 0.800 ± 0.248 | 0.702 ± 0.142
31 | 2308 (sense fAmUfUmUfUmGfGmGfCmCfCmAfCmAfAmAfGmUfAdT; antisense dTfAmCfUmUfUmGfUmGfGmGfCmCfCmAfAmAfAmUdT*dT; siRNA) [compound 2308] | 0.799 ± 0.084 | 0.998 ± 0.059
32 | 2309 (sense fUmUfUmUfGmGfGmCfCmCfAmCfAmAfAmGfUmGfAdT; antisense dTfCmAfCmUfUmUfGmUfGmGfGmCfCmCfAmAfAmAdT*dT; siRNA) [compound 2309] | 0.823 ± 0.096 | 1.081 ± 0.135
33 | 2310 (sense fUmUfUmGfGmGfCmCfCmAfCmAfAmAfGmUfGmGfAdT; antisense dTfCmCfAmCfUmUfUmGfUmGfGmGfCmCfCmAfAmAdT*dT; siRNA) [compound 2310] | 0.785 ± 0.122 | 0.923 ± 0.101
